Where a name gives a salt, the structure may show the parent alone.
Tests used:
HCT116 cells = experiment: Inhibitory effect against cancer cell proliferation (MTT); format: cell-based, human; settings: Homo sapiens, HCT-116; HCT116, MTT, 48 hours; read-out: IC50 (uM) @ HCT116
Experimental: The formazane crystals thus formed were dissolved using dimethyl sulfoxide (DMSO) and absorbance of the solution was measured at 560 nm. After culturing for 48 hours, […] synthesized in Examples was indicated as cell viability (%) according to each treated concentration.

AMPKa [pT172] = experiment: AMPKa activation [pT172] in MCF7 cell; format: cell-based

Row | SMILES | IC50 (HCT116 cells) [µM] | AMPKa activation [pT172] (Unit/ml) @ MCF7 cell (AMPKa [pT172]; 5 uM) [Unit/ml] | AMPKa activation [pT172] (Unit/ml) @ MCF7 cell (AMPKa [pT172]; 10 uM) [Unit/ml] | AMPKa activation [pT172] (Unit/ml) @ MCF7 cell (AMPKa [pT172]; 50 uM)
1 | CC1CCN(C(=N)NC(=N)NCc2ccc(C(F)(F)F)cc2)CC1.Cl [Example 61, N1 (4-methyl)piperidin-N5-(4-trifluoromethyl)benzyl Biguanide Hydrochloride] | 12.6 | 6.4 | 11.8 | 12.3 Unit/ml
2 | CCCN(CCC)C(=N)NC(=N)N(CCC)CCC.Cl [Example 16, N1,N1-dipropyl-N5N-dipropyl Biguanide Hydrochloride] | 45.9 | 7.0 | 9.4 | 13.6 Unit/ml
3 | Cl.N=C(N)NC(=N)NCCc1ccc(O)cc1 [Example 138, N1-(4-hydroxy)phenethyl Biguanide Hydrochloride] | > 100 | 3.7 | 3.7 | 4.2 Unit/ml
4 | Cl.N=C(NC(=N)N1CC=CCC1)N1CC=CCC1 [Example 68, N1-1,2,3,6-tetrahydropyridin-N5-1,2,3,6-tetrahydropyridine Biguanide Hydrochloride] | > 100 | 4.2 | 4.4 | 4.4 Unit/ml
5 | CC1CCN(C(=N)NC(=N)NCc2cccc(C(F)(F)F)c2)CC1.Cl [Example 60, N1-(4-methyl)piperidin-N5-(3-trifluoromethyl)benzyl Biguanide Hydrochloride] | 15.4 | 4.6 | 7.8 | 20.9 Unit/ml
6 | CN(C(=N)NC(=N)N)C1CCCCC1.Cl [Example 135, N1-methyl-N1-cyclohexyl Biguanide Hydrochloride] | > 100 |  |  | 4.2 Unit/ml
7 | CC1CC(=O)N=C(NC(=N)N2CCCCC2)N1.Cl (stereo not shown) [Example 154, N-(6-methyl-4-oxo-1,4,5-tetrahydropyrimidin-2-yl)piperidin-1-carboximidamide Hydrochloride] | > 100 | 2.9 | 2.9 | 2.8 Unit/ml
8 | CCCCCCN(CCCCCC)C(=N)NC(=N)N.Cl [Example 133, N1,N1-dihexyl Biguanide Hydrochloride] | > 100 |  |  | 7.1 Unit/ml
9 | CC1CCN(C(=N)NC(=N)Nc2cccc(OC(F)(F)F)c2)CC1.Cl [Example 49, N1-(4-methy)piperidin-N5-(3-trifluoromethoxy)phenyl Biguanide Hydrochloride] | 5.1 | 9.3 | 13.7 | cell death
10 | CN1CCN(C(=N)NC(=N)Nc2cc(F)cc(F)c2)CC1.Cl [Example 39, N1-(4-methyl)piperazin-N5-(3,5-difluoro)phenyl Biguanide Hydrochloride] | > 100 | 6.2 | 7.1 | 8.2 Unit/ml
11 | CCCCNC(=N)NC(=N)N1CCN(C)CC1.Cl [Example 36, N1-(4-methy)piperazin-N5-butyl Biguanide Hydrochloride] | > 100 | 5.5 | 5.8 | 4.8 Unit/ml
12 | Cl.N=C(NCc1ccc(OC(F)(F)F)cc1)NC(=N)Nc1cccnc1 [Example 42, Hydrochloride] | 23.7 |  |  | 
13 | Cl.N=C(N)NC(=N)N1CCOCC1 [Example 118, Hydrochloride] | > 100 |  |  | 
14 | C/N=C(\NCCc1ccccc1)NC(=N)N(C)C [Example 97, N1-phenethyl-N2-methyl-N5,N5-dimethyl Biguanide Hydrochloride] | 7.5 |  |  | 

From patent US11572341B2, “Biguanide compound and use thereof” (ImmunoMet Therapeutics Inc., priority 2014, dated 2023)
